Values quoted from earlier work, collected in patent publication US20040077556A1, “Compositions and methods for promoting weight loss, thermogenesis, appetite suppression, lean muscle mass, increasing metabolism and boosting energy levels, and use as a dietary supplement in mammals” (priority 2002, published 2004).
Read-outs that look alike come from different tables or passages of the source.

Experiments:
[1] = tested on: brown adipose tissue thermogenesis
[2] = cold-exposed rats

O=C(O[C@@H]1Cc2c(O)cc(O)cc2O[C@@H]1c1cc(O)c(O)c(O)c1)c1cc(O)c(O)c(O)c1 [EGCG, (2R,3R)-2-(3,4,5-Trihydroxyphenyl)-3,4-dihydro-1[2H]-benzopyran-3,5,7-triol 3-(3,4,5-trihydroxybenzoate)]
increase in thermogenesis ([1]; EGCG alone, 200 μM): 40%
effect on thermogenesis ([1]; EGCG alone, 50 and 100 μM): no effect

Cn1c(=O)c2c(ncn2C)n(C)c1=O [caffeine]
effect on thermogenesis ([1]; caffeine alone): little or no effect

O=c1c(O)c(-c2ccc(O)c(O)c2)oc2cc(O)ccc12 [Fisetin, 3,3′,4′,7-tetrahydroxyflavone]
increase in cAMP (cAMP): dose-dependent increase

NCCc1ccccc1 [PEA, phenylethylamine]
decrease of food intake (15 mg per kg of bodyweight per day): roughly one-third
maximum reduction of food intake (50 mg per kg of bodyweight): roughly twenty
reduction of food intake (15-50 mg per kg of bodyweight): 20-30%
tolerance to appetite-reducing effect (after four weeks): no tolerance

O=c1c(O)c(-c2ccc(O)c(O)c2)oc2cc(O)cc(O)c12 [quercetin, 3,3′,4′,5-7-pentahydroxyflavone]
increase in cAMP (cAMP): dose-dependent increase

Cn1c(=O)c2[nH]cnc2n(C)c1=O.NCCN [aminophylline, theophylline ethylenediamine]
increase of maximum thermogenesis ([2]; fed): 14.4%
increase of maximum thermogenesis ([2]; unfed): 19.4%
noradrenaline-stimulated thermogenesis after pretreatment ([2]; unfed, to levels seen in fed rats, dropped 18.2 percent without pretreatment): restored
